Test results reported in patent US9448244B2, “Compound, and method for measuring iron concentration by using novel compound as chelate color former” (WAKO PURE CHEMICAL INDUSTRIES, LTD., priority 2012, dated 2016).
“Also recorded” adds a separate entry of the source.

Columns and labels:
[1] = Absorbance measurement of iron chelate color development, first reagent solution pH 3.2 (Example 4 / Comparative Example 2); assay type: physicochemical; conditions: aqueous iron solution 200 μg/dL; R-1 glycine pH 3.2 (condition of serum iron measurement), R-2 tricine pH 9.0; color former 0.23 mM
Procedure: (§1) [Preparation of Reagent Solution]
(§2) (R-1) First Reagent Solution:
A 10 mM glycine buffer solution (pH 3.2) containing 0.5% (w/v) polyvinylpyrrolidone (K-90) (produced by Wako Pure Chemical Industries, Ltd.) was used as the first reagent solution.
(§3) (R-2) Second Reagent Solution:
A 100 mM tricine buffer solution (pH 9.0) containing 1 mM 4S-SPF which was synthesized in Example 1 or 1 mM 2S-4CPF which was synthesized in Example 2 was used as the second reagent solution.
The sample used was same as used in Example 3.
(§4) [Measurement of Absorbance]
For the above-described sample, the measurement of absorbance was carried out using the reagent solution described above and using JEOL BM6050 automatic analyzer (manufactured by JEOL Co., Ltd.) by the same measurement conditions as performed in Example 3.
It should be noted that, the concentration of 4S-SPF or 2S-4CPF at the time of measurement was 0.23 mM.
A 10 mM glycine buffer solution (pH 3.2) containing 0.5% (w/v) polyvinylpyrrolidone (K-90) was used as the first reagent solution.
A 100 mM tricine buffer solution (pH 9.0) containing 1 mM CPF was used as the second reagent solution. CPF was synthesized according to the method described in the Mitsuru Hoshino et al., Yakugaku Zassi, 2011, vol. 131, No. 7, p. 1095-1101 (Non-Patent Literature 1), and used.
The sample used was the same as used in Example 4.
For the above-described sample, the measurement of absorbance was carried out using the reagent solution described above and using JEOL BM6050 automatic analyzer (manufactured by JEOL Co., Ltd.) by the same measurement conditions as performed in Example 4.
It should be noted that, the concentration of the CPF at the time of measurement was 0.23

[2] = Absorbance measurement of iron chelate color development, first reagent solution pH 8.0 (Example 3 / Comparative Example 1); assay type: physicochemical; conditions: aqueous iron solution 200 μg/dL; R-1 tricine pH 8.0, R-2 tricine pH 8.0; color former 0.23 mM; 37° C.
Procedure: as §1, §2
A 100 mM tricine buffer solution (pH 8.0) containing 0.5% (w/v) polyvinylpyrrolidone (K-90) (produced by Wako Pure Chemical Industries, Ltd.) was used as the first reagent solution.
as §3
A 100 mM tricine buffer solution (pH 8.0) containing 1 mM 4S-SPF synthesized in Example 1 or 1 mM 2S-4CPF synthesized in Example 2 was used as the second reagent solution.
Aqueous ferrous ammonium sulfate solution (containing 200 μg/dL iron) was prepared and used as a sample.
as §4
For the above-described sample, the measurement of absorbance was carried out using the reagent solution described above, and using JEOL BM6050 automatic analyzer (manufactured by JEOL Co., Ltd.) by the following measurement conditions. In addition, when the measurement of reagent blank, measurement was carried out in the same manner using physiological saline instead of the sample.
Analysis method/Reaction time: [EPA] [10]
Measurement point: [44], [47]-[95], [98].
Wavelength (secondary/dominant): [694] [596]
Sample volume: 8 μL (2 times dilution at measurement)
Measurement temperature: 37° C.
It should be noted that the concentration of 4S-SPF or 2S-4CPF at the time of measurement was 0.23 mM.
A 100 mM tricine buffer solution (pH 8.0) containing 0.5% (w/v) polyvinylpyrrolidone (K-90) was used as the first reagent solution.
A 100 mM tricine buffer solution (pH 8.0) containing 1 mM CPF was used as the second reagent solution. The CPF was synthesized according to the method described in the Mitsuru Hoshino et al., Yakugaku Zassi, 2011, vol. 131, No. 7, p. 1095-1101 (Non-Patent Literature 1), and used.
Aqueous ferrous ammonium sulfate solution (containing 200 μg/dL iron) prepared and used as a sample.
For the above-described sample, the measurement of absorbance was carried out using the reagent solution described above and using JEOL BM6050 automatic analyzer (manufactured by JEOL Co., Ltd.) by the same measurement conditions as performed in Example 3. […]

SMILES | color fading after color development [1] | color fading after color development [2]
O=C(O)c1ccc(-c2c3cc(O)c(=O)cc-3oc3cc(O)c(O)cc23)c(S(=O)(=O)O)c1 [2S-4CPF, 9-(4-carboxy-2-sulfophenyl)-2,3,7-trihydroxy-6-fluorone] | fading after color development was not observed | color fading was not confirmed
O=c1cc2oc3cc(O)c(O)cc3c(-c3ccc(S(=O)(=O)O)cc3S(=O)(=O)O)c-2cc1O [4S-SPF, 9-(2,4-disulfophenyl)-2,3,7-trihydroxy-6-fluorone] | fading after color development was not observed | color fading was not confirmed
O=C(O)c1ccccc1-c1c2cc(O)c(=O)cc-2oc2cc(O)c(O)cc12 [CPF, 9-(2-carboxyphenyl)-2,3,7-trihydroxy-6-fluorone, reference compound] | color fading after color development was observed; also recorded: fading after color development was remarkable | color fading after color development was observed
